Earlier results in US20150024505A1, “APPARATUS FOR EVALUATING CARBONATE SOLUBILITY” (SAUDI ARABIAN OIL COMPANY, priority 2013, published 2015).

Conditions: in water; 10,000 psig and 300° F. required to reach this level

O=C=O [CO2]
limit of CO2 solubility: about 150 scf/stb of water
